Reference: patent publication US20150328109A1, “DERMAL COMPOSITIONS CONTAINING UNNATURAL HYGROSCOPIC AMINO ACIDS” (MEDPHARM LIMITED, priority 2012, published 2015)

Tested on: RHE tissues
Assay: RHE irritation assessment Method 1: SkinEthic Skin Irritation Test-42 bis assay (MTT), plus 24 h contact time
Format: cell-based, human
Settings: 42 min and 24 h exposure; 5 and 1% w/v α-H-G, 10 and 1% w/v L-h-S in water
Source text: The purpose of this experiment was to investigate the potential of alpha-hydroxyglycine (α-H-G) and L-homoserine (L-h-S) to cause skin irritation. The method was based on the validated SOP for the “The SkinEthic Skin Irritation Test-42 bis assay” in accordance to OECD guideline Test No. 439: In Vitro Skin Irritation. The protocol is provided in Section 1.2. Further details on the method can be found in the SkinEthic™ RHE SOP, Version 2.1 (July 2009), SkinEthic skin irritation test-42 bis test method for the prediction of acute skin irritation of chemicals: 42 minutes application+42 hours post-incubation. Available at: [http://ecvam.jrc.ec.europa.eu].
In addition, a further experiment was performed where the contact time of the test solution with the tissue was increased to 24 h. Following which point an MTT assay was used to determine the tissue viability and the test solutions potential to cause irritation.
The following steps were completed on receipt of the tissues: • (i) Wells of 6-well plates were filled with 1 mL growth culture medium. • (ii) Tissue were removed from their packaging, cleaned to remove the transport agarose and inspected for signs of damage; damaged tissues were discarded. • (iii) The tissue were transferred into the growth culture medium then incubated at 37° C., 5% CO2 until application of the test solution.
1.2.1.1.6 Applications of 5 and 1% w/v α-H-G and 10 and 1% w/v L-h-S and Controls • (i) 16 μL±0.5 μL of the test solutions (5% w/v α-hydroxyglycine (α-H-G) in water, 1% w/v α-hydroxyglycine (α-H-G) in water, 10% w/v L-homoserine (L-h-S) in water, 1% w/v L-homoserine (L-h-S) in water) and negative (PBS) and positive (5% SDS) controls were dispensed onto the top of the epidermal tissue, using positive displacement pipette. […]

N[C@@H](CCO)C(=O)O [L-homoserine]
skin irritation potential (viability below 50% of negative control = irritant): non-irritants
